Assay results as given in ChEMBL document CHEMBL1201862, “PubChem BioAssay data set” (2004).
Structures can show the parent of a compound that is named as a salt.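 Following 48 hours of exposure in 96-well plates, responses at five concentrations were used to interpolate endpoints linearly. GI50 is the concentration that inhibits growth by half.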 Active and inactive are the calls of the source. Rule as the data show it: active = GI50 up to about 1.1 µM and inactive = higher.

Tests used:
Assay in all cases: DTP human tumour cell line panel, 48 h
[1] = test system: A549
[2] = test system: CAKI-1
[3] = test system: EKVX
[4] = test system: M14
[5] = test system: NCI-H226
[6] = test system: NCI-H23
[7] = test system: OVCAR-4
[8] = test system: OVCAR-5
[9] = test system: OVCAR-8
[10] = test system: PC-3
[11] = test system: RPMI-8226
[12] = test system: SF-268
[13] = test system: SF-295
[14] = test system: SK-MEL-28
[15] = test system: SK-MEL-5
[16] = test system: TK-10
[17] = test system: UACC-257
[18] = test system: MCF7
[19] = test system: NCI-H460
[20] = test system: SR

| Compound | GI50 [1] | GI50 [2] | GI50 [3] | GI50 [4] | GI50 [5] | GI50 [6] | GI50 [7] | GI50 [8] | GI50 [9] | GI50 [10] | GI50 [11] | GI50 [12] | GI50 [13] | GI50 [14] | GI50 [15] | GI50 [16] | GI50 [17] | GI50 [18] | GI50 [19] | GI50 [20] |
| --- | --- | --- | --- | --- | --- | --- | --- | --- | --- | --- | --- | --- | --- | --- | --- | --- | --- | --- | --- | --- |
| O=[N+]([O-])C(C(Cl)=C(Cl)Cl)=C(N1CCOCC1)N1CCOCC1 | > 100 µM (inactive) | > 100 µM (inactive) | > 100 µM (inactive) | > 100 µM (inactive) | > 100 µM (inactive) | > 100 µM (inactive) | > 100 µM (inactive) | > 100 µM (inactive) | > 100 µM (inactive) | > 100 µM (inactive) | > 100 µM (inactive) | > 100 µM (inactive) | > 100 µM (inactive) | > 100 µM (inactive) | > 100 µM (inactive) | > 100 µM (inactive) | > 100 µM (inactive) |  |  |  |
| CO[C@@]12C[C@@H](C)[C@]34O[C@H]3C[C@]3(C)O[C@]43CC1=C(C)C(=O)O2 | > 100 µM (inactive) | > 100 µM (inactive) | > 100 µM (inactive) | > 100 µM (inactive) | > 100 µM (inactive) | > 100 µM (inactive) | > 100 µM (inactive) | > 100 µM (inactive) | > 100 µM (inactive) | > 100 µM (inactive) | > 100 µM (inactive) | > 100 µM (inactive) | > 100 µM (inactive) | > 100 µM (inactive) | > 100 µM (inactive) | > 100 µM (inactive) | > 100 µM (inactive) | > 100 µM (inactive) | > 100 µM (inactive) |  |
| C[C@H](OCc1ccccc1)C(=O)N1CCS(=O)(=O)N2CCC[C@H]2C1=O | > 100 µM (inactive) | > 100 µM (inactive) | > 100 µM (inactive) | > 100 µM (inactive) | > 100 µM (inactive) | > 100 µM (inactive) | > 100 µM (inactive) | > 100 µM (inactive) | > 100 µM (inactive) |  | > 100 µM (inactive) | > 100 µM (inactive) | > 100 µM (inactive) | > 100 µM (inactive) | > 100 µM (inactive) | > 100 µM (inactive) | > 100 µM (inactive) |  | > 100 µM (inactive) | > 100 µM (inactive) |
| CN(C)c1cccc2c(S(=O)(=O)NCCCNCCN)cccc12 | 66.5 µM (inactive) | > 100 µM (inactive) | > 100 µM (inactive) | 18.9 µM (inactive) | 64.6 µM (inactive) | 82.4 µM (inactive) | 55.2 µM (inactive) | 38.1 µM (inactive) |  | 44.2 µM (inactive) |  | 65.6 µM (inactive) | 55.2 µM (inactive) | 46.1 µM (inactive) | 20.8 µM (inactive) |  | > 100 µM (inactive) |  | 62.4 µM (inactive) | 19.1 µM (inactive) |
| O=C1Nc2ccccc2/C1=C\c1c(Cl)nc2n1CCS2 | 31.3 µM (inactive) | 34.8 µM (inactive) | 22.9 µM (inactive) | 33.7 µM (inactive) |  | 23.7 µM (inactive) | 31.5 µM (inactive) | 29 µM (inactive) | 34.4 µM (inactive) | 24.5 µM (inactive) | 27.7 µM (inactive) | 27.4 µM (inactive) | 25.2 µM (inactive) | 32.4 µM (inactive) | 14.6 µM (inactive) | 19.7 µM (inactive) | 13.7 µM (inactive) | 13 µM (inactive) | 18.2 µM (inactive) |  |
| Clc1cccc(C2ON=C(c3ccccc3)N2C23CC4CC(CC(C4)C2)C3)c1Cl (configuration not stated) | > 10 µM (inactive) | > 10 µM (inactive) | > 10 µM (inactive) | > 10 µM (inactive) | > 10 µM (inactive) | > 10 µM (inactive) | > 10 µM (inactive) | > 10 µM (inactive) | > 10 µM (inactive) | 6.41 µM (inactive) | > 10 µM (inactive) | > 10 µM (inactive) | > 10 µM (inactive) | > 10 µM (inactive) | > 10 µM (inactive) | > 10 µM (inactive) | > 10 µM (inactive) | > 10 µM (inactive) | > 10 µM (inactive) |  |
| COc1ccc(OC)c(CCc2ccccc2CC(=O)O)c1 | > 100 µM (inactive) | > 100 µM (inactive) | > 100 µM (inactive) | > 100 µM (inactive) | > 100 µM (inactive) | > 100 µM (inactive) | > 100 µM (inactive) | > 100 µM (inactive) | > 100 µM (inactive) |  | > 100 µM (inactive) | > 100 µM (inactive) | > 100 µM (inactive) | > 100 µM (inactive) | > 100 µM (inactive) | > 100 µM (inactive) | > 100 µM (inactive) |  | > 100 µM (inactive) | > 100 µM (inactive) |
| Cc1c2ccccc2c(/C=N/NC(=O)CSCC(=O)N/N=C/c2c3ccccc3c(C)c3ccccc23)c2ccccc12 | > 64.1 µM (inactive) | > 67.1 µM (inactive) | > 59 µM (inactive) | > 52.5 µM (inactive) | > 44.7 µM (inactive) | 11.4 µM (inactive) | > 42.1 µM (inactive) | 38.9 µM (inactive) | 16.2 µM (inactive) | > 31.4 µM (inactive) | 17.2 µM (inactive) | 23.8 µM (inactive) | 16 µM (inactive) | > 60.7 µM (inactive) | 54.7 µM (inactive) | 29 µM (inactive) | 31.6 µM (inactive) | 23 µM (inactive) | > 57.7 µM (inactive) |  |
| CC1(C)OC([C@H](O)CO)C([C@H]2NCCS2)O1 (some centres not stated) | > 100 µM (inactive) | > 100 µM (inactive) | > 100 µM (inactive) | > 100 µM (inactive) | > 100 µM (inactive) | > 100 µM (inactive) | > 100 µM (inactive) | > 100 µM (inactive) | > 100 µM (inactive) | > 100 µM (inactive) | > 100 µM (inactive) | > 100 µM (inactive) | > 100 µM (inactive) | > 100 µM (inactive) | > 100 µM (inactive) | > 100 µM (inactive) | > 100 µM (inactive) |  | > 100 µM (inactive) | > 100 µM (inactive) |
| Cc1cc(S(=O)(=O)Nc2nc(N)n(C)n2)c(S)cc1Cl | > 10 µM (inactive) | > 10 µM (inactive) | > 10 µM (inactive) | > 10 µM (inactive) | > 10 µM (inactive) | > 10 µM (inactive) | > 10 µM (inactive) | > 10 µM (inactive) | > 10 µM (inactive) | > 10 µM (inactive) | > 10 µM (inactive) | > 10 µM (inactive) | > 10 µM (inactive) | > 10 µM (inactive) | > 10 µM (inactive) | > 10 µM (inactive) | > 10 µM (inactive) | > 10 µM (inactive) | > 10 µM (inactive) |  |
| COc1cc(-c2nnc3n2NC=C(C(=O)O)S3)cc(OC)c1OC | > 100 µM (inactive) | > 100 µM (inactive) | > 100 µM (inactive) | > 81.3 µM (inactive) | > 100 µM (inactive) | > 100 µM (inactive) | > 62.2 µM (inactive) | > 100 µM (inactive) | > 100 µM (inactive) |  | > 49.4 µM (inactive) | > 76.9 µM (inactive) | > 100 µM (inactive) | > 100 µM (inactive) | > 100 µM (inactive) | > 100 µM (inactive) | > 100 µM (inactive) |  | > 71.4 µM (inactive) | 41.6 µM (inactive) |
| CC1=CC(=O)C[C@]2(C)[C@@H](O)CC(C(C)CO)C[C@@H]12 (some centres not stated) | > 100 µM (inactive) | > 100 µM (inactive) | > 100 µM (inactive) | > 100 µM (inactive) | > 100 µM (inactive) | > 100 µM (inactive) | > 100 µM (inactive) | > 100 µM (inactive) | > 100 µM (inactive) |  |  | > 100 µM (inactive) | > 100 µM (inactive) | > 100 µM (inactive) | > 100 µM (inactive) | > 100 µM (inactive) | > 100 µM (inactive) | > 100 µM (inactive) | > 100 µM (inactive) |  |
| COc1ccc(OC)c(CC2CCc3nc(N)nc(N)c3C2)c1 (configuration not stated) | < 0.01 µM (active) | 27.1 µM (inactive) | 15.6 µM (inactive) | 0.342 µM (active) | 20.9 µM (inactive) | 0.251 µM (active) | 28.8 µM (inactive) | 0.51 µM (active) | 20.3 µM (inactive) | 0.0316 µM (active) | 18.2 µM (inactive) | < 0.0192 µM (active) |  | 18.8 µM (inactive) | < 0.019 µM (active) | 8.32 µM (inactive) | 5.78 µM (inactive) | 0.509 µM (active) | < 0.01 µM (active) |  |
| C#Cc1cccc(Nc2ncnc3cc(OCCOC)c(OCCOC)cc23)c1 [ERLOTINIB HYDROCHLORIDE] | 1.59 µM (inactive) | < 0.01 µM (active) |  | 6.67 µM (inactive) |  | 41.7 µM (inactive) | 27.2 µM (inactive) | > 100 µM (inactive) | 7.23 µM (inactive) | 34.5 µM (inactive) | 55.3 µM (inactive) |  | 16.2 µM (inactive) | > 100 µM (inactive) | 1.41 µM (inactive) |  | > 100 µM (inactive) |  | 2.31 µM (inactive) |  |
| O=C1Cc2c([nH]c3ccc(Br)cc23)-c2ccccc2N1 [KENPAULLONE] | > 90.2 µM (inactive) |  | > 100 µM (inactive) | > 100 µM (inactive) | > 100 µM (inactive) | > 100 µM (inactive) | > 100 µM (inactive) | > 100 µM (inactive) | > 100 µM (inactive) | > 100 µM (inactive) | > 20.5 µM (inactive) | > 75.5 µM (inactive) | > 100 µM (inactive) | > 62.4 µM (inactive) | > 28.4 µM (inactive) | > 100 µM (inactive) | > 100 µM (inactive) |  | > 100 µM (inactive) | 4.21 µM (inactive) |
